# Measured values published in patent US6627611B2, “C-glycosides and preparation of thereof as antidiabetic agents” (Kotobuki Pharmaceutical Co Ltd, priority 2000, dated 2003).
# Assays:
# male SD rats = assay: Measurement of urinary glucose excretion in rats; assay type: in vivo, rat; conditions: 10 mg/kg i.p. administered twice at an 8 hr interval, urine collected for 24 hr after first administration
# Method: The pharmacological test of urinary glucose excretion in rat is described that follow.
# Measurement of Urinary Glucose Excretion in Rats
# 20 mg of test compounds were dissolved in 10 mL saline containing 20% dimethylsulufoxide.
# Test compound (10 mg/5 mL/kg, i.p.) was administered twice an 8 hr interval to male SD rats (6 weeks old, 3 animals/group). An equal volume of vehicle was given to the control group. Urine was collected for 24 hr after first administration in metabolic cages.
# The urine was centrifuged and urine volume was measured. Glucose concentration (mg/dl) was assayed using Glucose CII test Wako (Wako Pure Chemicals, Japan). The amounts of glucose excretion during 24 hr was calculated from the following equation.
# Glucose secretion (mg/24 hr)=(A×B)/100
# (A; the urine volume, B; the glucose concentration)
melting point [°C],SMILES,Urinary glucose excretion (mg/24 hr) (male SD rats)
256 to 257,COc1cc(O)c(C(=O)/C=C/c2cc3ccccc3o2)cc1C1OC(CO)C(O)C(O)C1O (stereo not shown) [Compound 20],
103 to 105,"COc1cc(O)c(C(=O)CCc2ccc3occc3c2)c(C[C@@H]2O[C@H](CO)[C@@H](O)[C@H](O)[C@H]2O)c1 [Compound 21, 3-(Benzo[b]furan-5-yl)-2′-β-D-glucopyranosylmethyl-6′-hydroxy-4′-methoxypropiophenone]",
226 to 228,COc1cc(O)c(C(=O)CCc2ccc3occc3c2)cc1C1OC(CO)C(O)C(O)C1O (stereo not shown) [Compound 22],124
112 to 113,COc1cc(OC)c(C2OC(CO)C(O)C(O)C2O)cc1C(=O)CCc1ccc2occc2c1 (stereo not shown) [Compound 23],
89 to 90,CCOc1cc(OCC)c(C2OC(CO)C(O)C(O)C2O)cc1C(=O)CCc1ccc2occc2c1 (stereo not shown) [Compound 24],
175 to 176,CCOc1cc(O)c(C(=O)CCc2ccc3occc3c2)cc1C1OC(CO)C(O)C(O)C1O (stereo not shown) [Compound 25],
191 to 192,Cc1cc(O)c(C(=O)CCc2ccc3occc3c2)cc1C1OC(CO)C(O)C(O)C1O (stereo not shown) [Compound 26],
118 to 119,COc1cc(C)c(C(=O)CCc2ccc3occc3c2)cc1C1OC(CO)C(O)C(O)C1O (stereo not shown) [Compound 27],
194 to 196,COc1cc(O)c(C(=O)CCc2ccc3c(c2)CCC3)cc1C1OC(CO)C(O)C(O)C1O (stereo not shown) [Compound 28],
131 to 132,COc1cc(O)c(C(=O)CCc2ccc3occc3c2)c(OC)c1C1OC(CO)C(O)C(O)C1O (stereo not shown) [Compound 29],
66 to 71,COc1cc(O)c(C(=O)CCc2ccc3[nH]ccc3c2)cc1C1OC(CO)C(O)C(O)C1O (stereo not shown) [Compound 30],
216 to 217,COc1cc(O)c(C(=O)CCc2cc3ccccc3o2)cc1C1OC(CO)C(O)C(O)C1O (stereo not shown) [Compound 31],
71 to 73,COc1cc(O)c(C(=O)/C=C/c2ccc3occc3c2)cc1C1OC(COC(=O)CCC(=O)O)C(O)C(O)C1O (stereo not shown) [Compound 42],
115 to 117,"COc1cc(O)c(C(=O)/C=C/c2ccc3occc3c2)cc1C1OC(C(=O)[O-])C(O)C(O)C1O.[Na+] [Compound 43, 3-(Benzo[b]furan-5-yl)-3′-(6-carboxysodium salt-β-D-glucopyranosyl)4′-methoxy-6′-hydroxy-acrylophenone]",
177 to 179,"COc1cc(O)c(C(=O)/C=C/c2ccc3occc3c2)cc1C1OC(COS(=O)(=O)O)C(O)C(O)C1O [Compound 44, 3-(Benzo[b]furan-5-yl)-3′-(6-sulfonic acid-β-D-glucopyranosyl)-4′-methoxy-6′-hydroxyacrylophenone]",
113 to 114,COc1cc(O)c(C(=O)CCc2ccc3occc3c2)cc1C1OC(COC(=O)CCC(=O)O)C(O)C(O)C1O (stereo not shown) [Compound 47],
262,COc1cc(O)c(C(=O)CCc2ccc3occc3c2)cc1C1OC(COC(=O)CCC(=O)[O-])C(O)C(O)C1O.[Na+] (stereo not shown) [Compound 48],
103 to 105,"Cc1cc(O)c(C(=O)/C=C/c2ccc3occc3c2)c(CC2OC(CO)C(O)C(O)C2O)c1 [Compound 51, 3-(Benzo[b]furan-5-yl)-1-[6-hydroxy-4-methyl-2-{(β-D-glucopyranos-1-yl)methyl}]acrylophenone]",
85 to 87,"Cc1cc(O)c(C(=O)CCc2ccc3occc3c2)c(CC2OC(CO)C(O)C(O)C2O)c1 [Compound 52, 3-(Benzo[b]furan-5-yl)-1-[6-hydroxy-4-methyl-2-{(β-D-glucopyranos-1-yl)methyl}]propiophenone]",
58 to 60,"COC(=O)OCC1OC(Cc2cc(C)cc(O)c2C(=O)CCc2ccc3occc3c2)C(O)C(O)C1O [Compound 53, 3-Benzo [b]furan-5-yl-1-(6-hydroxy-4-methyl-2-{[6-methoxycarbonyl-β-D-glucopyranos-1-yl]methyl})propiophenone]",
227 to 228,"O=C(CCc1ccc(O)cc1)c1c(O)cc(O)cc1CC1OC(CO)C(O)C(O)C1O [Compound 54, 1-[2,4-Dihydroxy-6-{(β-D-glicopyranosyl)methyl}phenyl]-3-(4-hydroxyphenyl)propan-1-one]",
80 to 83,COc1cc(C)cc(CC2OC(CO)C(O)C(O)C2O)c1C(=O)/C=C/c1ccc2occc2c1 (stereo not shown) [Compound 55],
118 to 120,COc1cc(C)cc(CC2OC(CO)C(O)C(O)C2O)c1C(=O)/C=C/c1ccc2occc2c1 (stereo not shown) [Compound 57],
199 to 201,COC(=O)OCC1OC(Cc2cc(O)cc(O)c2C(=O)CCc2ccc(O)cc2)C(O)C(O)C1O (stereo not shown) [Compound 58],

# Further lines, the compound ahead of its results:
SMILES,melting point [°C],Urinary glucose excretion (mg/24 hr) (male SD rats)
"COc1cc(O)c(C(=O)/C=C/c2ccc3occc3c2)c(CC2OC(CO)C(O)C(O)C2O)c1 [Compound 1, 3-(Benzo[b]furan-5-yl)-1-(2′-β-D-glucopyranosylmethyl-6′-hydroxy-4′-methoxy)acrylophenone]",135 to 136,4.1
COc1cc(OC)c(C2OC(CO)C(O)C(O)C2O)cc1C(=O)/C=C/c1ccc2occc2c1 (stereo not shown) [Compound 2],226 to 228,
"COc1cc(O)c(C(=O)/C=C/c2ccc3occc3c2)cc1[C@@H]1O[C@H](CO)[C@@H](O)[C@H](O)[C@H]1O [Compound 3, 3-(Benzo[b]furan-5-yl)-3′-β-D-glucopyranosyl-6′-hydroxy-4′-methoxyacrylophenone]",> 250,241
"COC(=O)OC[C@H]1O[C@@H](c2cc(C(=O)/C=C/c3ccc4occc4c3)c(O)cc2OC)[C@H](O)[C@@H](O)[C@@H]1O [Compound 4, 3-(Benzo[b]furan-5-yl)-3′-(6-O-methoxycarbonyl-β-D-glucopyranosyl)-6′-hydroxy-4′-methoxy-acrylophenone]",195 to 196,289
"COC(=O)OCC1OC(c2cc(C(=O)CCc3ccc4occc4c3)c(O)cc2OC)C(O)C(O)C1O [Compound 5, 3-(Benzo[b]furan-5-yl)-3′-(6-O-methoxycarbonyl-β-D-glucopyranosyl)-6′-hydroxy-4′-methoxy-propiopenone]",120 to 121,228
CCOc1cc(OCC)c(C2OC(CO)C(O)C(O)C2O)cc1C(=O)/C=C/c1ccc2occc2c1 (stereo not shown) [Compound 6],120 to 121,8.9
CCOc1cc(O)c(C(=O)/C=C/c2ccc3occc3c2)cc1C1OC(CO)C(O)C(O)C1O (stereo not shown) [Compound 7],189 to 190,
Cc1cc(O)c(C(=O)/C=C/c2ccc3occc3c2)cc1C1OC(CO)C(O)C(O)C1O (stereo not shown) [Compound 8],228 to 229,
COc1cc(C)c(C(=O)/C=C/c2ccc3occc3c2)cc1C1OC(CO)C(O)C(O)C1O (stereo not shown) [Compound 9],137 to 138,
COc1cc(O)c(C(=O)/C=C/c2ccc(C)cc2)cc1C1OC(CO)C(O)C(O)C1O (stereo not shown) [Compound 10],181 to 183,
COc1cc(O)c(C(=O)/C=C/c2ccsc2)cc1C1OC(CO)C(O)C(O)C1O (stereo not shown) [Compound 11],239 to 242,
COc1cc(O)c(C(=O)/C=C/c2ccncc2)cc1C1OC(CO)C(O)C(O)C1O (stereo not shown) [Compound 12],183 to 185,
COc1cc(O)c(C(=O)/C=C/c2ccc3ccccc3c2)cc1C1OC(CO)C(O)C(O)C1O (stereo not shown) [Compound 13],236 to 239,
COc1cc(O)c(C(=O)/C=C/c2ccnc3ccccc23)cc1C1OC(CO)C(O)C(O)C1O (stereo not shown) [Compound 14],226 to 228,
COc1cc(O)c(C(=O)/C=C/c2ccc3c(c2)CCC3)cc1C1OC(CO)C(O)C(O)C1O (stereo not shown) [Compound 15],245 to 248,
COc1cc(O)c(C(=O)/C=C/c2ccc3occc3c2)c(OC)c1C1OC(CO)C(O)C(O)C1O (stereo not shown) [Compound 16],198 to 199,
COc1cc(O)c(C(=O)/C=C/c2ccc3[nH]ccc3c2)cc1C1OC(CO)C(O)C(O)C1O (stereo not shown) [Compound 17],194 to 196,
COc1cc(O)c(C(=O)/C=C/c2ccc3sccc3c2)cc1C1OC(CO)C(O)C(O)C1O (stereo not shown) [Compound 18],217 to 220,
COc1cc(O)c(C(=O)/C=C/c2ccc3c(c2)CCO3)cc1C1OC(CO)C(O)C(O)C1O (stereo not shown) [Compound 19],276 to 279,
